Results from paper PMC7184563 (Journal of Medicinal Chemistry, 2020).

What was measured:
BCL6 BTB = BCL6 BTB (Homo sapiens, UniProt P41182); assay: biochemical; details: BCL6 IC50 (FP), geometric mean
[1] = format: in vivo, mouse; details: 1 mg/kg iv and 5 mg/kg po, after dosing and 24 h after dose
[2] = PK study in SCID mouse, po; format: in vivo; details: 15 mg/kg po
BCL6 levels in tumor = BCL6 levels in tumor (Homo sapiens, UniProt P41182); assay: PK/PD study in OCI-Ly1 DLBCL xenograft model; details: single dose 15 mg/kg po
[3] = Microsomal clearance assay, mouse liver microsomes; format: in vitro ADME
BCL6 [4] = target: T1, BCL6 (Homo sapiens, UniProt P41182); format: cell-based; details: SU-DHL-4
BCL6 [5] = target: T1, BCL6; assay: Western blot of BCL6 protein levels, OCI-Ly1 cells; format: cell-based; details: 4 h at 37 °C
BCL6 [6] = target: T1, BCL6; assay: Western blot of BCL6 protein levels, SU-DHL-4 cells; format: cell-based; details: 4 h at 37 °C
PAMPA permeability = format: in vitro ADME
HPLC solubility assay = format: physicochemical; details: kinetic solubility by HPLC in PBS buffer, 1% DMSO, pH 7.4
Microsomal clearance = format: in vitro ADME

Structure (SMILES): Cn1c(=O)n(C)c2cc(Nc3cc(SCc4ccccc4)ncn3)ccc21 [Compound 3]
- IC50 (BCL6 BTB): ~100 µM

Structure (SMILES): C[C@@H]1CN(c2ncc(Cl)c(Nc3ccc4c(c3)n(CCC(C)(C)O)c(=O)n4C)n2)C[C@H](C)C1(F)F [Compound 1, 5-((5-Chloro-2-((3R,5S)-4,4-difluoro-3,5-dimethylpiperidin-1-yl)pyrimidin-4-yl)amino)-3-(3-hydroxy-3-methylbutyl)-1-methyl-1,3-dihydro-2H-benzo[d]imidazol-2-one]
- appearance of mice after dosing [1]: appeared normal
- time mean total blood concentration above the desired concentration [2]: approximately 10 h
- free concentration that leads to degradation of BCL6 in tumor (BCL6 levels in tumor): > 1 nM
- time of maximal effect on tumor BCL6 (BCL6 levels in tumor): ~4 h
- levels of BCL6 in the tumor (BCL6 levels in tumor; OCI-Ly1 xenograft, up to 10 h after dosing): clear decrease in levels of BCL6 in the tumor
- adverse events (BCL6 levels in tumor; SCID mice): No visible adverse events were observed

Structure (SMILES): C[C@@H]1C[C@H](C)CN(c2ncc(Cl)c(Nc3ccc4c(c3)n(CCC(C)(C)O)c(=O)n4C)n2)C1 [Compound 24b, 5-((5-Chloro-2-((3S,5R)-3,5-dimethylpiperidin-1-yl)pyrimidin-4-yl)amino)-3-(3-hydroxy-3-methylbutyl)-1-methyl-1,3-dihydro-2H-benzo[d]imidazol-2-one]
- metabolism in mouse microsomes (in words) [3]: rapid metabolism
- BCL6 degradation in the IF assay (in words) (BCL6 [4]): identified as degraders
- BCL6 protein levels by Western blot, OCI-Ly1 (BCL6 [5]): concentration-dependent reduction in BCL6 protein levels
- BCL6 protein levels by Western blot, SU-DHL-4 (BCL6 [6]): concentration-dependent reduction in BCL6 protein levels

Structure (SMILES): Cn1c(=O)n(CCC(C)(C)O)c2cc(Nc3nc(N4CCC(C(F)(F)F)CC4)ncc3Cl)ccc21 [Compound 27h, 5-((5-Chloro-2-(4-(trifluoromethyl)piperidin-1-yl)pyrimidin-4-yl)amino)-3-(3-hydroxy-3-methylbutyl)-1-methyl-1,3-dihydro-2H-benzo[d]imidazol-2-one]
- BCL6 degradation in the IF assay (in words) (BCL6 [4]): loss of degradation activity

Structure (SMILES): C[C@@H]1CN(c2ncc(Cl)c(Nc3ccc4c(c3)n(CCC(C)(C)O)c(=O)n4C)n2)C[C@H](C)N1C [Compound 25c, 5-((5-Chloro-2-((3S,5R)-3,4,5-trimethylpiperazin-1-yl)pyrimidin-4-yl)amino)-3-(3-hydroxy-3-methylbutyl)-1-methyl-1,3-dihydro-2H-benzo[d]imidazol-2-one]
- BCL6 degradation in the IF assay (in words) (BCL6 [4]): not capable of inducing BCL6 degradation

Structure (SMILES): Cn1c(=O)n(CCC(C)(C)O)c2cc(Nc3nc(N4CC5CCC(C4)C5(F)F)ncc3Cl)ccc21 [Compound 28a, 5-((5-Chloro-2-(8,8-difluoro-3-azabicyclo[3.2.1]octan-3-yl)pyrimidin-4-yl)amino)-3-(3-hydroxy-3-methylbutyl)-1-methyl-1,3-dihydro-2H-benzo[d]imidazol-2-one]
- BCL6 degradation in the IF assay (in words) (BCL6 [4]): loss of degradation activity

Structure (SMILES): C[C@@H]1CN(c2ncc(Cl)c(Nc3ccc4c(c3)n(CCC(C)(C)O)c(=O)n4C)n2)C[C@H](C)O1 [Compound 25a, 5-((5-Chloro-2-((2R,6S)-2,6-dimethylmorpholino)pyrimidin-4-yl)amino)-3-(3-hydroxy-3-methylbutyl)-1-methyl-1,3-dihydro-2H-benzo[d]imidazol-2-one]
- BCL6 degradation in the IF assay (in words) (BCL6 [4]): not capable of inducing BCL6 degradation

Structure (SMILES): Cn1c(=O)n(CCC(C)(C)O)c2cc(Nc3nc(N4C5CCC4CC(F)(F)C5)ncc3Cl)ccc21 [Compound 28b, 5-((5-Chloro-2-(3,3-difluoro-8-azabicyclo[3.2.1]octan-8-yl)pyrimidin-4-yl)amino)-3-(3-hydroxy-3-methylbutyl)-1-methyl-1,3-dihydro-2H-benzo[d]imidazol-2-one]
- BCL6 degradation in the IF assay (in words) (BCL6 [4]): loss of degradation activity

Structure (SMILES): COCC1CN(c2ncc(Cl)c(Nc3ccc4c(c3)n(CCC(C)(C)O)c(=O)n4C)n2)CCC1(F)F (centres unmarked) [Compound 27f, 5-((5-Chloro-2-(4,4-difluoro-3-(methoxymethyl)piperidin-1-yl)pyrimidin-4-yl)amino)-3-(3-hydroxy-3-methylbutyl)-1-methyl-1,3-dihydro-2H-benzo[d]imidazol-2-one]
- BCL6 degradation in the IF assay (in words) (BCL6 [4]): reduced degradation

Structure (SMILES): C[C@@H]1C[C@H](C)CN(c2cc(Nc3ccc4c(c3)n(CCC(C)(C)O)c(=O)n4C)c(Cl)cn2)C1 [Compound 26b, 5-((5-Chloro-2-((3S,5R)-3,5-dimethylpiperidin-1-yl)pyridin-4-yl)amino)-3-(3-hydroxy-3-methylbutyl)-1-methyl-1,3-dihydro-2H-benzo[d]imidazol-2-one]
- BCL6 degradation in the IF assay (in words) (BCL6 [4]): identified as degraders

Structure (SMILES): N#Cc1c(NCc2ccccc2)ccnc1Cl [Compound 2]
- IC50 (BCL6 BTB): ~100 µM

Structure (SMILES): Cn1c(=O)n(C)c2cc(Nc3ccnc(Cl)c3C#N)ccc21 [Compound 6, 2-Chloro-4-((1,3-dimethyl-2-oxo-2,3-dihydro-1H-benzo[d]imidazol-5-yl)amino)nicotinonitrile]
- PAMPA permeability (in words) (PAMPA permeability): high PAMPA permeability
- Aq. sol. (HPLC, shown in parentheses) (HPLC solubility assay): (16) μM
- microsomal clearance (in words) (Microsomal clearance): Low microsomal clearance

Structure (SMILES): Cn1c(=O)n(CCC(C)(C)O)c2cc(Nc3ccnc(Cl)c3C#N)ccc21 [Compound 17a, 2-Chloro-4-((3-(3-hydroxy-3-methylbutyl)-1-methyl-2-oxo-2,3-dihydro-1H-benzo[d]imidazol-5-yl)amino)nicotinonitrile]
- Aq. sol. (HPLC, shown in parentheses) (HPLC solubility assay): (25) μM

Structure (SMILES): CC1CCCN(c2ncc(Cl)c(Nc3ccc4c(c3)n(CCC(C)(C)O)c(=O)n4C)n2)C1 (centres unmarked) [Compound 24a, 5-((5-Chloro-2-(3-methylpiperidin-1-yl)pyrimidin-4-yl)amino)-3-(3-hydroxy-3-methylbutyl)-1-methyl-1,3-dihydro-2H-benzo[d]imidazol-2-one]
- metabolism in mouse microsomes (in words) [3]: rapid metabolism
- BCL6 degradation in the IF assay (in words) (BCL6 [4]): identified as degraders

Structure (SMILES): Cn1c(=O)n(CCC(C)(C)O)c2cc(Nc3nc(N4CCCC(C#N)C4)ncc3Cl)ccc21 (centres unmarked) [Compound 27g, 1-(5-Chloro-4-((3-(3-hydroxy-3-methylbutyl)-1-methyl-2-oxo-2,3-dihydro-1H-benzo[d]imidazol-5-yl)amino)pyrimidin-2-yl)piperidine-3-carbonitrile]
- BCL6 degradation in the IF assay (in words) (BCL6 [4]): did not enable degradation
